Laboratory results published in ChEMBL document CHEMBL1909046, “DrugMatrix in vitro pharmacology data”.

Assays:
Adenosine receptor A3 = molecular target: T1, Adenosine receptor A3 (Homo sapiens, UniProt P0DMS8); type: cell membranes, CHO-K1, Membrane; conditions: cho-k1;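 further: radioligand binding assay with AB-MECA serving as the labeled ligand; in other assays of this panel Not Active means under 50% inhibition at 10 µM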
T1 sequence (P0DMS8 whole entry): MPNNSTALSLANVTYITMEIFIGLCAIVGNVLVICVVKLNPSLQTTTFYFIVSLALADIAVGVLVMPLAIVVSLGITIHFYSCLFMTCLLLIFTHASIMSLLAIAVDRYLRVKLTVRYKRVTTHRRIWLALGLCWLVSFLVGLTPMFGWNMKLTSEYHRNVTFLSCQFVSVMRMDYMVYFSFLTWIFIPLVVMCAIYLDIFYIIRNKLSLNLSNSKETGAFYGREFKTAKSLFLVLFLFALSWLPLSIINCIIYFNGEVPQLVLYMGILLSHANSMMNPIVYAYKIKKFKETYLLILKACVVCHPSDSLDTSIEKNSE

[1] = DRUGMATRIX: Phosphodiesterase PDE4 enzyme inhibition (substrate: [3H]cAMP + cAMP); conditions: u-937; Not Active = under 50% inhibition at 10 µM
[2] = molecular target: T2, Amine oxidase [flavin-containing] A (Homo sapiens, UniProt P21397); experiment: DRUGMATRIX: Monoamine Oxidase MAO-A enzyme inhibition (substrate: Kynuramine); parameters: species or system BTI-TN-5B1-4; conditions: bti-tn-5b1-4; Not Active = under 50% inhibition at 10 µM
T2 sequence (P21397 whole entry): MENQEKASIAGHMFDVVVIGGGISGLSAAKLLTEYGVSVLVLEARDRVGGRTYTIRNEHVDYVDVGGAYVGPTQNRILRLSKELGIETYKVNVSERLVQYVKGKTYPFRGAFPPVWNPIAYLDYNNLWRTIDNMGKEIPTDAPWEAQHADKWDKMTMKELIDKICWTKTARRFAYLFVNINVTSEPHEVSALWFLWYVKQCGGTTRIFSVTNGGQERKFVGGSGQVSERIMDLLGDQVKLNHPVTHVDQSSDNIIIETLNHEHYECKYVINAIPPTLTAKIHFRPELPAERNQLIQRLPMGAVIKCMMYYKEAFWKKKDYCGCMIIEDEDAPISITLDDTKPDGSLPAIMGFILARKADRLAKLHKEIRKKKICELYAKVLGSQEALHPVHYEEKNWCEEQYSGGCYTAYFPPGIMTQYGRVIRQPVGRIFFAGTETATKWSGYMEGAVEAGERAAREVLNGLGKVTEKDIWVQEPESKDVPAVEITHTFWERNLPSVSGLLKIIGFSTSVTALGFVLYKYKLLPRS

[3] = molecular target: Mitogen-activated protein kinase 14 (Homo sapiens, UniProt Q16539); parameters: species or system Escherichia coli;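 further: inhibition of p38alpha enzyme activity in a biochemical kinase assay, with myelin basic protein serving as substrate; in other assays of this panel Not Active means under 50% inhibition at 10 µM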
[4] = molecular target: C-C chemokine receptor type 5 (Homo sapiens, UniProt P51681); type: cell membranes, HEK293, Membrane; conditions: hek293; further: in other assays of this panel Not Active means under 50% inhibition at 10 µM
[5] = molecular target: Protein kinase C alpha type (Homo sapiens, UniProt P17252); type: cell-based; conditions: sf9;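 further: inhibition of PKCalpha kinase activity measured in an enzyme assay with histone as the phosphorylation substrate; in other assays of this panel Not Active means under 50% inhibition at 10 µM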
Mu-type opioid receptor = Mu-type opioid receptor (Homo sapiens, UniProt P35372); experiment: DRUGMATRIX: Opiate mu (OP3, MOP) radioligand binding (ligand: [3H] Diprenorphine); type: cell membranes, CHO-K1, Membrane; conditions: cho-k1; Not Active = under 50% inhibition at 10 µM
[6] = DRUGMATRIX: Calcium Channel Type L, Phenylalkylamine radioligand binding (ligand: [3H] (-)-Desmethoxyverapamil (D-888)); type: cell membranes, Rattus norvegicus, Wistar, Brain, Membrane; conditions: Not Active = under 50% inhibition at 10 µM
D(1A) dopamine receptor = D(1A) dopamine receptor (Homo sapiens, UniProt P21728); experiment: DRUGMATRIX: Dopamine D1 radioligand binding (ligand: [3H] SCH-23390); type: cell membranes, Membrane; conditions: cho; Not Active = under 50% inhibition at 10 µM
[7] = molecular target: Beta-3 adrenergic receptor (Homo sapiens, UniProt P13945); experiment: DRUGMATRIX: Adrenergic beta3 radioligand binding (ligand: [125I] Cyanopindolol); type: cell membranes, Membrane; conditions: hek293; Not Active = under 50% inhibition at 10 µM
[8] = molecular target: Receptor tyrosine-protein kinase erbB-2 (Homo sapiens, UniProt P04626); experiment: biochemical; type: cell-based, Insect cells; conditions: insect cells
Receptor tyrosine-protein kinase erbB-2, sequence (P04626 whole entry): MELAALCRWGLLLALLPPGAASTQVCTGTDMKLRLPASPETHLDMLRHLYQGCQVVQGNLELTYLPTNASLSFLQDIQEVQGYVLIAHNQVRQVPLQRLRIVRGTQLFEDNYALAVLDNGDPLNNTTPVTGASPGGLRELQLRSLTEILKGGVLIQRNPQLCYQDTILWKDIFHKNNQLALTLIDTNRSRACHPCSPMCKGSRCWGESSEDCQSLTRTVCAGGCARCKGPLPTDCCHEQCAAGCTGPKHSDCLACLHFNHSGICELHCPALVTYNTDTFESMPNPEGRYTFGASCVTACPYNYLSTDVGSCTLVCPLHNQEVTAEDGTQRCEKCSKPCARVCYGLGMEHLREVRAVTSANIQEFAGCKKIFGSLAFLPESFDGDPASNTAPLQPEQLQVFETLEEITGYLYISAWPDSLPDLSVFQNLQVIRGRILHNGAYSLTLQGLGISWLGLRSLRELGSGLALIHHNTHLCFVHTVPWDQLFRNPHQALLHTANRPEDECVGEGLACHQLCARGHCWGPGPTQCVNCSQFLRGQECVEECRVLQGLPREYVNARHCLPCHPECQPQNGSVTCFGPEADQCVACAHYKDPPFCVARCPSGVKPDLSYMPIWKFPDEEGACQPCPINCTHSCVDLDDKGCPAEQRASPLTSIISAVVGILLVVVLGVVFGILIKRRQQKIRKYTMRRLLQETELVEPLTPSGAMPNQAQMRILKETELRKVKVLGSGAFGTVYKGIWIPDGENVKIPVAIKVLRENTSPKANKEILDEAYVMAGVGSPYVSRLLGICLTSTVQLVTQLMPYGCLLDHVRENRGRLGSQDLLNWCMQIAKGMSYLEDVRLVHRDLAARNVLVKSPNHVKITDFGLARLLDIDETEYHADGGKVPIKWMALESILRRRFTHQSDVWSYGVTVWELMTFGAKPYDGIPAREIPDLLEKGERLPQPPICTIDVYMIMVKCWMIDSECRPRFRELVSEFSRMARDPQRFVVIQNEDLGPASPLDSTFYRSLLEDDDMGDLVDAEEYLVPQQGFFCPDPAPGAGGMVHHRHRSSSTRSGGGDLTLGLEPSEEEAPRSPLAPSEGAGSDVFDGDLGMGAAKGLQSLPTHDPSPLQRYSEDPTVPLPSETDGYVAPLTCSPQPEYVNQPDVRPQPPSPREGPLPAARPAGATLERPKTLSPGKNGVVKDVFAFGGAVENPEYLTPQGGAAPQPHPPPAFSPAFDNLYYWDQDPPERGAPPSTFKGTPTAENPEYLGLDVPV

Mu-type opioid receptor, sequence (P35372 whole entry): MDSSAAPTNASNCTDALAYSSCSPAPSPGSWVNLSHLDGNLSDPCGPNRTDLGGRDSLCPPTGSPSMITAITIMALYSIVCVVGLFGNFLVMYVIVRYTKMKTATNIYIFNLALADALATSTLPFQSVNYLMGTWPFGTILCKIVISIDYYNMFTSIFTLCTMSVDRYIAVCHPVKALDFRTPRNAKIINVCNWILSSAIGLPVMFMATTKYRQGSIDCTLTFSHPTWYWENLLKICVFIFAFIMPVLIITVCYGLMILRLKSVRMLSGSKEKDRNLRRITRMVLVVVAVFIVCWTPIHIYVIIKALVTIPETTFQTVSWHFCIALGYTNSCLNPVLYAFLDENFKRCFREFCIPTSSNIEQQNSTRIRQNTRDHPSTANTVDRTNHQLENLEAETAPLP
C-C chemokine receptor type 5, sequence (P51681 whole entry): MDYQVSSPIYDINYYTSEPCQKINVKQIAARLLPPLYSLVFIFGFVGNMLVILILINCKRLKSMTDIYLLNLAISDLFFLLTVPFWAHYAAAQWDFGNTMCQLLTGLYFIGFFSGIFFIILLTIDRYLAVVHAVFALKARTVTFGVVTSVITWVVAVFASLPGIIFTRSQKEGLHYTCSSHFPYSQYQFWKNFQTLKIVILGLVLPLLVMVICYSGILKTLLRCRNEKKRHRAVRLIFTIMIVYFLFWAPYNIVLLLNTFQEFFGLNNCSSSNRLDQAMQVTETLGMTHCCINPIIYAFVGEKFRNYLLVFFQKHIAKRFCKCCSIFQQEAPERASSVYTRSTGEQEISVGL
Beta-3 adrenergic receptor, sequence (P13945 whole entry): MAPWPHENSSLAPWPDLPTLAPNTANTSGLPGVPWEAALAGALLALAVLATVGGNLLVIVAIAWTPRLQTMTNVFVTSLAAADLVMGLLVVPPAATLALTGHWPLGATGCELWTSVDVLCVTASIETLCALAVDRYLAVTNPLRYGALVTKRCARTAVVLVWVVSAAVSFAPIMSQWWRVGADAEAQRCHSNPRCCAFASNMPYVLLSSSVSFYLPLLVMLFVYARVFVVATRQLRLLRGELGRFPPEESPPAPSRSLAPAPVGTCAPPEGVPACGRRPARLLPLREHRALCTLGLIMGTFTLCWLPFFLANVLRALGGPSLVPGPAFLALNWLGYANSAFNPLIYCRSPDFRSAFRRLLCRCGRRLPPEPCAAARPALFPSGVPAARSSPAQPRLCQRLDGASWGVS
D(1A) dopamine receptor, sequence (P21728 whole entry): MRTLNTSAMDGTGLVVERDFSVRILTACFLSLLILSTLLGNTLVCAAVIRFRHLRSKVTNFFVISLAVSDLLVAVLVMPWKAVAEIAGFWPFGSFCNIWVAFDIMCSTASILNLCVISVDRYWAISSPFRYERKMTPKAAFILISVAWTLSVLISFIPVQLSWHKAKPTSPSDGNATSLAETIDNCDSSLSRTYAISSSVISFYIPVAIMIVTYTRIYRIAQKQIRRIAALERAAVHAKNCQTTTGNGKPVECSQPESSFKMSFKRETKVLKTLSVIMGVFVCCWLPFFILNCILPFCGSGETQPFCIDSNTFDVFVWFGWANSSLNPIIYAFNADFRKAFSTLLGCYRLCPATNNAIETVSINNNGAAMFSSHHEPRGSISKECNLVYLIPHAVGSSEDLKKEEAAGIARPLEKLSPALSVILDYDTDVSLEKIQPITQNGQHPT
Mitogen-activated protein kinase 14, sequence (Q16539 whole entry): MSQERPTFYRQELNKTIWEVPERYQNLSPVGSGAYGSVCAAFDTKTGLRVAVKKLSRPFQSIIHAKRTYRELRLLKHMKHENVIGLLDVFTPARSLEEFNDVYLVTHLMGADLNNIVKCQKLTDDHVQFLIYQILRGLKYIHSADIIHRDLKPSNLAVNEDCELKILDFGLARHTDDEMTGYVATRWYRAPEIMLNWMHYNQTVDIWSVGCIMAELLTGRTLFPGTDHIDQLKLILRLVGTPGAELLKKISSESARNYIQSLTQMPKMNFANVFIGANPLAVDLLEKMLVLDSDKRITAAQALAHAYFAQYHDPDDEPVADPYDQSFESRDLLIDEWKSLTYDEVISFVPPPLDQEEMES

[H]/N=C(/N)N[C@H]1[C@H](O)[C@@H](O)[C@H](O[C@@H]2O[C@@H](C)[C@](O)(C=O)[C@H]2O[C@@H]2O[C@@H](CO)[C@H](O)[C@@H](O)[C@@H]2NC)[C@@H](N/C(N)=N\[H])[C@@H]1O [STREPTOMYCIN]
Not Active: IC50 (Adenosine receptor A3) | IC50 [1] | Ki [1] | IC50 [2] | IC50 [3] | IC50 [4] | IC50 [5] | IC50 (Mu-type opioid receptor) | IC50 [6] | Ki [6] | IC50 (D(1A) dopamine receptor) | IC50 [7] | IC50 [8]

COc1cc(NS(=O)(=O)c2ccc(N)cc2)nc(OC)n1 [SULFADIMETHOXINE]
Not Active: IC50 (Adenosine receptor A3) | IC50 [1] | Ki [1] | IC50 [2] | IC50 [3] | IC50 [4] | IC50 [5] | IC50 (Mu-type opioid receptor) | IC50 [6] | Ki [6] | IC50 (D(1A) dopamine receptor) | IC50 [7] | IC50 [8]

Cc1cc(C)nc(NS(=O)(=O)c2ccc(N)cc2)n1 [SULFAMETHAZINE]
Not Active: IC50 (Adenosine receptor A3) | IC50 [1] | Ki [1] | IC50 [2] | IC50 [3] | IC50 [4] | IC50 [5] | IC50 (Mu-type opioid receptor) | IC50 [6] | Ki [6] | IC50 (D(1A) dopamine receptor) | IC50 [7] | IC50 [8]

C[C@]1(Cn2ccnn2)[C@H](C(=O)O)N2C(=O)C[C@H]2S1(=O)=O [TAZOBACTAM]
Not Active: IC50 (Adenosine receptor A3) | IC50 [1] | Ki [1] | IC50 [2] | IC50 [3] | IC50 [4] | IC50 [5] | IC50 (Mu-type opioid receptor) | IC50 [6] | Ki [6] | IC50 (D(1A) dopamine receptor) | IC50 [7] | IC50 [8]

CN1C(C(=O)Nc2ccccn2)=C(O)c2sccc2S1(=O)=O [TENOXICAM]
Not Active: IC50 (Adenosine receptor A3) | IC50 [1] | Ki [1] | IC50 [2] | IC50 [3] | IC50 [4] | IC50 [5] | IC50 (Mu-type opioid receptor) | IC50 [6] | Ki [6] | IC50 (D(1A) dopamine receptor) | IC50 [7] | IC50 [8]

O=C1CCC(N2C(=O)c3ccccc3C2=O)C(=O)N1 (stereo unspecified) [THALIDOMIDE]
Not Active: IC50 (Adenosine receptor A3) | IC50 [1] | Ki [1] | IC50 [2] | IC50 [3] | IC50 [4] | IC50 [5] | IC50 (Mu-type opioid receptor) | IC50 [6] | Ki [6] | IC50 (D(1A) dopamine receptor) | IC50 [7] | IC50 [8]

Cc1cccc(Nc2ccncc2S(=O)(=O)NC(=O)NC(C)C)c1 [TORSEMIDE]
Not Active: IC50 (Adenosine receptor A3) | IC50 [1] | Ki [1] | IC50 [2] | IC50 [3] | IC50 [4] | IC50 [5] | IC50 (Mu-type opioid receptor) | IC50 [6] | Ki [6] | IC50 (D(1A) dopamine receptor) | IC50 [7] | IC50 [8]

CC(C)C[C@H](NC(=O)[C@@H](O)[C@H](N)Cc1ccccc1)C(=O)O [UBENIMEX]
Not Active: IC50 (Adenosine receptor A3) | IC50 [1] | Ki [1] | IC50 [2] | IC50 [3] | IC50 [4] | IC50 [5] | IC50 (Mu-type opioid receptor) | IC50 [6] | Ki [6] | IC50 (D(1A) dopamine receptor) | IC50 [7] | IC50 [8]

Cc1onc(-c2ccccc2)c1-c1ccc(S(N)(=O)=O)cc1 [VALDECOXIB]
Not Active: IC50 (Adenosine receptor A3) | IC50 [1] | Ki [1] | IC50 [2] | IC50 [3] | IC50 [4] | IC50 [5] | IC50 (Mu-type opioid receptor) | IC50 [6] | Ki [6] | IC50 (D(1A) dopamine receptor) | IC50 [7] | IC50 [8]

CC[C@]1(O)C[C@@H]2CN(CCc3c([nH]c4ccccc34)[C@@](C(=O)OC)(c3cc4c(cc3OC)N(C)[C@H]3[C@@](O)(C(=O)OC)[C@H](OC(C)=O)[C@]5(CC)C=CCN6CC[C@]43[C@@H]65)C2)C1 [VINBLASTINE]
Not Active: IC50 (Adenosine receptor A3) | IC50 [1] | Ki [1] | IC50 [2] | IC50 [3] | IC50 [4] | IC50 [5] | IC50 (Mu-type opioid receptor) | IC50 [6] | Ki [6] | IC50 (D(1A) dopamine receptor) | IC50 [7] | IC50 [8]

C[C@@H](N)[C@H]1CC[C@H](C(=O)Nc2ccncc2)CC1 [Y-27632]
Not Active: IC50 (Adenosine receptor A3) | IC50 [1] | Ki [1] | IC50 [2] | IC50 [3] | IC50 [4] | IC50 [5] | IC50 (Mu-type opioid receptor) | IC50 [6] | Ki [6] | IC50 (D(1A) dopamine receptor) | IC50 [7] | IC50 [8]

[Cl-].[Cl-].[Zn+2] [ZINC CHLORIDE]
Not Active: IC50 (Adenosine receptor A3) | IC50 [1] | Ki [1] | IC50 [2] | IC50 [3] | IC50 [4] | IC50 [5] | IC50 (Mu-type opioid receptor) | IC50 [6] | Ki [6] | IC50 (D(1A) dopamine receptor) | IC50 [7] | IC50 [8]
